In the NIST ThermoML archive (doi:10.1016/j.fluid.2009.08.011):

Assay: cn = amount concentration of the nth substance listed, in mol/dm3
Settings: 101 kPa, Liquid, Alternating current cell with electrodes

CCCCn1cc[n+](C)c1.[Br-] [1-butyl-3-methylimidazolium bromide] + O
Settings	molar conductivity [S·m2/mol]
298.15 K, c1 = 0.0004937	0.0131
298.15 K, c1 = 0.0008655	0.0131
298.15 K, c1 = 0.001621	0.013
298.15 K, c1 = 0.002706	0.0129
298.15 K, c1 = 0.003761	0.0128
298.15 K, c1 = 0.005815	0.0126
298.15 K, c1 = 0.008089	0.0125
298.15 K, c1 = 0.01047	0.0123
298.15 K, c1 = 0.01259	0.0122
308.15 K, c1 = 0.0004882	0.0137
308.15 K, c1 = 0.00104	0.0135
308.15 K, c1 = 0.001567	0.0135
308.15 K, c1 = 0.001953	0.0134
308.15 K, c1 = 0.002955	0.0132
308.15 K, c1 = 0.00388	0.0131
308.15 K, c1 = 0.004882	0.0129
308.15 K, c1 = 0.006552	0.0128
308.15 K, c1 = 0.008273	0.0127
308.15 K, c1 = 0.009904	0.0125
308.15 K, c1 = 0.01206	0.0124
318.15 K, c1 = 0.000457	0.015
318.15 K, c1 = 0.001096	0.0148
318.15 K, c1 = 0.001486	0.0147
318.15 K, c1 = 0.002393	0.0143
318.15 K, c1 = 0.003324	0.014
318.15 K, c1 = 0.004652	0.0138
318.15 K, c1 = 0.006235	0.0134
318.15 K, c1 = 0.008073	0.0131
318.15 K, c1 = 0.009991	0.0129
318.15 K, c1 = 0.012	0.0126
318.15 K, c1 = 0.0138	0.0124
328.15 K, c1 = 0.00043	0.0158
328.15 K, c1 = 0.000847	0.0157
328.15 K, c1 = 0.001805	0.0154
328.15 K, c1 = 0.002719	0.0152
328.15 K, c1 = 0.003628	0.015
328.15 K, c1 = 0.005125	0.0147
328.15 K, c1 = 0.006801	0.0144
328.15 K, c1 = 0.008998	0.014
328.15 K, c1 = 0.01111	0.0136
328.15 K, c1 = 0.01358	0.0132

CCCCCCn1cc[n+](C)c1.[Br-] [3-hexyl-1-methyl-1H-imidazolium bromide] + O
Settings	molar conductivity [S·m2/mol]
298.15 K, c1 = 0.0004233	0.0104
298.15 K, c1 = 0.0008352	0.0103
298.15 K, c1 = 0.001327	0.0102
298.15 K, c1 = 0.001785	0.0101
298.15 K, c1 = 0.002231	0.0101
298.15 K, c1 = 0.003203	0.00996
298.15 K, c1 = 0.004124	0.00983
298.15 K, c1 = 0.005143	0.00974
298.15 K, c1 = 0.006841	0.00955
298.15 K, c1 = 0.008495	0.00941
298.15 K, c1 = 0.01022	0.00923
298.15 K, c1 = 0.01211	0.00905
298.15 K, c1 = 0.01464	0.0088
308.15 K, c1 = 0.0004492	0.0108
308.15 K, c1 = 0.001027	0.0106
308.15 K, c1 = 0.001581	0.0105
308.15 K, c1 = 0.002065	0.0104
308.15 K, c1 = 0.002724	0.0104
308.15 K, c1 = 0.003914	0.0102
308.15 K, c1 = 0.005116	0.00999
308.15 K, c1 = 0.006411	0.00987
308.15 K, c1 = 0.008535	0.00965
308.15 K, c1 = 0.01052	0.00946
308.15 K, c1 = 0.0126	0.00927
308.15 K, c1 = 0.01458	0.00912
318.15 K, c1 = 0.0004492	0.011
318.15 K, c1 = 0.001027	0.0109
318.15 K, c1 = 0.001581	0.0108
318.15 K, c1 = 0.002065	0.0107
318.15 K, c1 = 0.002724	0.0106
318.15 K, c1 = 0.003914	0.0104
318.15 K, c1 = 0.005116	0.0103
318.15 K, c1 = 0.006411	0.0102
318.15 K, c1 = 0.008535	0.00993
318.15 K, c1 = 0.01052	0.00971
318.15 K, c1 = 0.0126	0.00953
318.15 K, c1 = 0.01458	0.00935
328.15 K, c1 = 0.0005148	0.0114
328.15 K, c1 = 0.001041	0.0113
328.15 K, c1 = 0.001608	0.0111
328.15 K, c1 = 0.002215	0.011
328.15 K, c1 = 0.002695	0.0109
328.15 K, c1 = 0.003725	0.0107
328.15 K, c1 = 0.004772	0.0105
328.15 K, c1 = 0.005836	0.0103
328.15 K, c1 = 0.007462	0.0102
328.15 K, c1 = 0.00911	0.00996
328.15 K, c1 = 0.0107	0.00985
328.15 K, c1 = 0.01243	0.00963
328.15 K, c1 = 0.0147	0.00945

CCCCn1cc[n+](C)c1.[I-] [1-butyl-3-methylimidazolium iodide] + O
Settings	molar conductivity [S·m2/mol]
298.15 K, c1 = 0.0009058	0.0138
298.15 K, c1 = 0.001366	0.0137
298.15 K, c1 = 0.002017	0.0136
298.15 K, c1 = 0.002809	0.0135
298.15 K, c1 = 0.003715	0.0134
298.15 K, c1 = 0.00495	0.0133
298.15 K, c1 = 0.006082	0.0132
298.15 K, c1 = 0.007529	0.0131
298.15 K, c1 = 0.009093	0.0129
298.15 K, c1 = 0.01105	0.0127
298.15 K, c1 = 0.01306	0.0126
298.15 K, c1 = 0.01489	0.0125
298.15 K, c1 = 0.01706	0.0123
298.15 K, c1 = 0.01978	0.0122
298.15 K, c1 = 0.02281	0.012
308.15 K, c1 = 0.0004602	0.0139
308.15 K, c1 = 0.0008351	0.0138
308.15 K, c1 = 0.001278	0.0137
308.15 K, c1 = 0.001726	0.0135
308.15 K, c1 = 0.002088	0.0135
308.15 K, c1 = 0.00254	0.0133
308.15 K, c1 = 0.003341	0.0132
308.15 K, c1 = 0.004184	0.0131
308.15 K, c1 = 0.005066	0.0129
308.15 K, c1 = 0.006502	0.0127
308.15 K, c1 = 0.007827	0.0126
308.15 K, c1 = 0.009685	0.0124
308.15 K, c1 = 0.01153	0.0122
318.15 K, c1 = 0.0002077	0.0144
318.15 K, c1 = 0.0005721	0.0143
318.15 K, c1 = 0.000962	0.0142
318.15 K, c1 = 0.001339	0.0141
318.15 K, c1 = 0.002111	0.0139
318.15 K, c1 = 0.002755	0.0138
318.15 K, c1 = 0.003581	0.0136
318.15 K, c1 = 0.004395	0.0134
318.15 K, c1 = 0.005399	0.0132
318.15 K, c1 = 0.006692	0.013
318.15 K, c1 = 0.007942	0.0128
318.15 K, c1 = 0.009561	0.0126
318.15 K, c1 = 0.01162	0.0124
328.15 K, c1 = 0.0004059	0.0146
328.15 K, c1 = 0.00074	0.0145
328.15 K, c1 = 0.001116	0.0143
328.15 K, c1 = 0.001865	0.0141
328.15 K, c1 = 0.002626	0.0139
328.15 K, c1 = 0.003374	0.0138
328.15 K, c1 = 0.004072	0.0137
328.15 K, c1 = 0.005214	0.0134
328.15 K, c1 = 0.006444	0.0132
328.15 K, c1 = 0.007599	0.013
328.15 K, c1 = 0.009252	0.0128
328.15 K, c1 = 0.01045	0.0126
328.15 K, c1 = 0.01188	0.0125
